Laboratory results taken from patent publication US7504384B2 (priority 2000, dated 2009).
Like-named read-outs stand apart in the source and are kept apart here.

Experiments:
[1] = test system: Influenza A (H1N1 strain) virus; format: cell-based, Influenza type A, A/New Caledonia/20/99 (H1N1); settings: high concentration, Neutral Red Uptake Assay
[2] = test system: Influenza A (H3N2 strain) virus; format: cell-based, Influenza type A, A/Panama/2007/99 (H3N2); settings: high concentration, Neutral Red Uptake Assay
[3] = test system: Influenza A (H1N1 strain) virus; format: cell-based, Influenza type A, A/New Caledonia/20/99 (H1N1); settings: high concentration; Visual Observation Assay; Influenza A (H1N1 strain)
[4] = test system: Influenza A (H3N2 strain) virus; format: cell-based, Influenza type A, A/Panama/2007/99 (H3N2)
mice = experiment: Acute (7 day) toxicity test; format: in vivo; settings: mice, one week after a single i.p. dose of 1000, 500 or 200 mg/kg; versus untreated mice
Description: […] Mortality rate, body weight, blood count (red and white cells), hematocrit, and internal organ histology after sacrifice were assessed. These parameters were compared in Lipid-conjugate-treated and in control, untreated mice.

[5] = test system: PGE2 and TXB2 production by guinea pig tracheal rings; experiment: Tracheal tissue PGE2 and TXB2 production (radioimmunoassay); settings: Histamine (40 μM) + Compound XXVI (10 μM); histamine alone 5.6
Description: Experiment 3.5: Guinea pig tracheal rings were incubated with or without Compound XXVI for 30 minutes prior to stimulation. The medium was collected after 30 minutes, and PGE2 and TXB2 levels were determined by radioimmunoassay (Table 3.2). PGE2 and TXB2 are metabolites of arachidonic acid produced during inflammatory response.

[6] = test system: Guinea pig tracheal rings; experiment: Inhibition of tracheal ring contraction; settings: Lipid-conjugate 10 μM
Description: A muscle preparation (tracheal rings) was isolated from rats (Experiments 3.1-3.3) and from guinea pigs (Experiments 3.4-3.5). Muscle contraction was measured by attachment of the muscle to a pressure transducer, which works much like a spring. Administration of asthmatogenic substances such as endothelin-1 (ET) and acetylcholine (AcCh) induces muscle contraction. Endothelins are released upon vascular endothelial injury, and they activate macrophages and act as strong chemo-attractants for circulating monocytes. Endothelins affect vascular smooth muscle fibroblast proliferation; help regulate vascular, airway, and intestinal smooth muscle tone; increase the activity of bone alkaline phosphatase; stimulate release of atrial natriuretic peptide (ANP) from atrial cardiocytes; inhibit the release of renin from glomeruli and modulate norepinephrine at sympathetic nerve termini. Opposing vasomotor effects are regulated through the binding of distinct endothelin receptors for vasoconstriction and vasodilation. Endothelins have been linked to atherosclerosis and various cardiovascular disease states. ET-1 is important in congestive heart failure, renal failure, pulmonary hypertension, hyperlipidemia and metastatic prostate cancer. On the other hand, AcCh is one of the three main receptors on the bronchi of the lungs, which are basically tubes with muscular walls. Stimulation of bronchial AcCh receptor induces muscle contraction and decreased airflow through the bronchi. Thus, ET and AcCh were used to experimentally induce muscle contraction in the lungs as a model of obstructive respiratory disorders.
Experiment 3.4: Guinea pig tracheal rings (in a linear array), immersed in a ringer bath, were connected to an apparatus measuring the length of the ring chain. […] Human airways have both Histamine (H)-1 and H2 receptors. H1 receptors, which mediate bronchoconstriction, predominate. Histamine application in experimental models produces signs and symptoms of asthma, such as narrowing of the airways, mucus secretion, wheezing, and coughing.

[7] = test system: HIV-1IIIB-infected H9 cells and uninfected MT-2 cells; experiment: Inhibition of fusion between HIV-infected and uninfected cells; format: cell-based; settings: for IC50 (mean ± SD), inhibition of fusion / IC90 (mean ± SD), inhibition of fusion: H9/HIV-1 IIIB + MT-2 cells, 2 h; for IC50 / IC90: Table 1.4
Description: In this assay, HIV-1IIIB-infected H9 cells were labeled with BCECF (2′,7′-bis(2-carboxyethyl)-5-6-carboxyfluorescein-acetoxymethyl-ester, Molecular Probes, Eugene, Oreg.) according to the manufacturer's instructions. BCECF-labeled H9/HIV-1 IIIB cells (10^4) were mixed with 1×10^5 uninfected MT-2 cells. After incubation in a 96-well plate at 37° C. for 2 h, the fused and unfused labeled cells were counted under an inverted fluorescence microscope at ×160 magnification. At least 200 BCECF-labeled cells were counted and the proportion of fused cells was determined Fusion tests were carried out in the presence and absence of graded quantities of the tested Lipid-conjugates. […] The IC50 represents the concentration of a drug that is required to achieve 50% inhibition. Similarly, the IC90 represents the concentration of a drug that is required to achieve 90% inhibition.

HIV-1IIIB = experiment: Inhibition of p24 production (HIV-1IIIB infection of MT-2 cells); format: cell-based; settings: fourth day, p24 ELISA
Description: Experiment 1.2: Inhibition of HIV-1IIIB Infection
After 1 h, half of the culture medium was changed and replaced by fresh medium (with/without Lipid-conjugate) and after 24 h, the second half of the culture medium was changed and replaced by fresh medium (with/without Lipid-conjugate). On the fourth day after incubation at 37° C., 100 μl of culture supernatants were collected from each well and an equal volume of fresh medium was added to the wells. The collected supernatants were mixed with an equal volume of 5% (v/v) Triton X-100 and assayed for p24 antigen using an ELISA kit from Coulter Immunology (Hialeah, Fla.).

[8] = test system: vaccinia virus (WR strain); format: cell-based; settings: 48 hr
[9] = target: V3 (third variable) domain of the HIV-1 envelope glycoprotein gp120; experiment: V3 antibody binding (ELISA); design: species or system human immunodeficiency virus type 1 (HIV-1); settings: standard ELISA
Description: V3 antibody binding is an assay that uses an antibody that binds to the V3 (third variable) domain of the human immunodeficiency virus type 1 (HIV-1) envelope glycoprotein gp120. Anti-V3 domain antibodies may provide an indicator of the presence and amount of HIV. V3 antibody binding was determined by standard ELISA.

Influenza B virus = format: cell-based, Influenza type B, B/Hong Kong/330/02; settings: lower range of doses, at the concentrations tested
Punta Toro virus [10] = format: cell-based, strain Adames
Punta Toro virus [11] = format: cell-based, strain Adames; remark: listed apart in the source
[12] = test system: Respiratory syncytial virus; format: cell-based, strain A2; settings: lower range of doses, at the concentrations tested
Human RBC = experiment: Prevention of hemolysis of human red blood cells; format: cell-based; settings: 20 min, 10 μM Lipid-conjugate, None = 1.000
Description: Hemolysis, the breakdown of red blood cells (RBC), may be either a primary disease in itself, or a syndrome associated with another disease or physiological insult. In order to determine the effect of Lipid-conjugates on hemolysis, red blood cells were incubated in the presence of known membrane destabilizing agents and the release of hemoglobulin into the extracellular medium was detected.
Human RBC were washed in saline and suspended in Hanks buffer (pH 7.4). Hemolysis was induced in the absence or presence of 10 μM Lipid-conjugates by treatment with either 5 U/ml streptolysin O (SLO), 25 U/ml streptolysin S (SLS), or 5 μg/ml lysophosphatidylcholine (lyso-PC) for 20 min. The cell membranes were spun and the hemoglobin content in the supernatant was determined by measuring the O.D. at 540 nm (Table 5.1).

[13] = lower range of doses, at the concentrations tested

Compound | toxicity: mortality rate, body weight, blood count, hematocrit, internal organ histology (mice) | IC50 (mean ± SD), inhibition of fusion [7] | IC90 (mean ± SD), inhibition of fusion [7] | IC50 (mean ± SD), inhibition of p24 production (HIV-1IIIB) | IC90 (mean ± SD), inhibition of p24 production (HIV-1IIIB) | IC50 [7] | IC90 [7] | % inhibition [8] | Virus titer [8] | IC50 [9] | IC50 (HIV-1IIIB) | IC90 (HIV-1IIIB) | also measured
NC(=O)c1ncn([C@@H]2O[C@H](CO)[C@@H](O)[C@H]2O)n1 [Ribavirin, reference compound] | – | – | – | – | – | – | – | – | – | – | – | – | SI (IC50/EC50) [1]: 25; SI (IC50/EC50) [2]: 36; SI (IC50/EC50) [3]: 22; SI (IC50/EC50) ([4]; high concentration, Visual Observation Assay, Influenza A (H3N2 strain)): 56
PE conjugated to CMC [Compound XXVI] | did not alter the parameters | – | – | – | – | – | – | – | – | – | – | – | TXB2 [5]: 1.75 ng/mL; % Inhibition of tracheal ring contraction ([6]; stimulant Endothelin-1 (100 nM)): 92 ± 1.1%; % Inhibition of tracheal ring contraction ([6]; stimulant Histamine (20 μM)): 69 ± 0.1%; % Inhibition of tracheal ring contraction ([6]; stimulant Phospholipase (0.5 μ/ml) (crotalus atrox type II)): 100 ± 0.3%
PE conjugated to Polygeline (haemaccel) [Compound XXVII] | – | >500 µg/mL | >500 µg/mL | 375.8 ± 119.5 µg/mL | >500 µg/mL | – | – | – | – | – | – | – | –
dimyristoyl-phosphatidyl-ethanolamine linked to HA [Compound XXIII] | – | 122.8 ± 14.8 µg/mL | 219.8 ± 10.6 µg/mL | 118.0 ± 16.8 µg/mL | 296.3 ± 104.0 µg/mL | 1.83 µM | 3.3 µM | 99.9% | 7.7 × 10^4 PFU/culture | 3 µM | 1.77 µM | 4.44 µM | –
dipalmitoyl-phosphatidyl-ethanolamine (PE) conjugated to chondroitin-sulfate A [Compound XXV] | induced hemorrhage | >500 µg/mL | >500 µg/mL | 72.5 ± 8.0 µg/mL | 106.0 ± 10.3 µg/mL | > 10 µM | > 10 µM | 62.8% | 3.2 × 10^7 PFU/culture | 0.2 µM | 1.45 µM | 2.12 µM | virus inhibitory effect against influenza B (Influenza B virus): did not demonstrate a virus inhibitory effect; SI (IC50/EC50) (Punta Toro virus [10]): 0; EC50 (Punta Toro virus [10]; low concentrations, Neutral Red Uptake Assay, Punta Toro A): >100 µg/mL; SI (IC50/EC50) (Punta Toro virus [11]): 0; EC50 (Punta Toro virus [11]; low concentrations, Visual Observation Assay, Punta Toro A): >100 µg/mL; virus inhibitory effect against Punta Toro virus (Punta Toro virus [11]; [13]): did not display a virus inhibitory effect; virus inhibitory effect against influenza A (H3N2 strain) [4, 13]: did not demonstrate a virus inhibitory effect; virus inhibitory effect against RSV [12]: did not demonstrate a virus inhibitory effect
hyaluronic acid [HA, reference compound] | – | – | – | – | – | – | – | – | – | – | – | – | HEMOLYSIS (O.D. AT 540 nm), Lyso-PC (Human RBC; 5 μg/ml lysophosphatidylcholine): 1.875 O.D.; HEMOLYSIS (O.D. AT 540 nm), SLO (Human RBC; 5 U/ml streptolysin O): 1.000 O.D.; HEMOLYSIS (O.D. AT 540 nm), SLS (Human RBC; 25 U/ml streptolysin S): 1.000 O.D.
